Assay results as given in publication PMC4311985, “Molecular Surveillance of Antiviral Drug Resistance of Influenza A/H3N2 Virus in Singapore, 2009-2013” (PLoS ONE, 2015).

Experiments:
[1] = target: influenza A/H3N2 NA, D93G single mutation (Influenza A virus (H3N2), UniProt V9SU56, D93G); type: biochemical; settings: read-out: mean drug concentration required to inhibit 50% NA activity
[2] = target: influenza A/H3N2 NA, D93G, Y155F, D251V mutations in combination (Influenza A virus (H3N2), UniProt V9SU56, D251V/D93G/Y155F); type: biochemical; settings: read-out: mean drug concentration required to inhibit 50% NA activity
[3] = target: influenza A/H3N2 NA, D93G, D251N mutations in combination (Influenza A virus (H3N2), UniProt V9SU56, D251N/D93G); type: biochemical; settings: read-out: mean drug concentration required to inhibit 50% NA activity
[4] = test system: influenza A/H3N2 NA E119D; settings: ref [3] of supplement (Nguyen 2012); cited from earlier work
[5] = test system: influenza A/H3N2 NA E119I; settings: ref [3] of supplement (Nguyen 2012); cited from earlier work
[6] = test system: influenza A/H3N2 NA E119V; settings: ref [3] of supplement (Nguyen 2012); cited from earlier work
[7] = test system: influenza A/H3N2 NA R292K; settings: ref [3] of supplement (Nguyen 2012); cited from earlier work
[8] = test system: influenza A/H3N2 NA N294S; settings: ref [3] of supplement (Nguyen 2012); cited from earlier work
[9] = test system: influenza A/H3N2 NA E119V+I222V; settings: ref [3] of supplement (Nguyen 2012); cited from earlier work
influenza A/H3N2 NA E41G = settings: ref [2] of supplement (Monto 2006); cited from earlier work
[10] = test system: influenza A/H3N2 NA Q136K; settings: ref [3] of supplement (Nguyen 2012); cited from earlier work
[11] = test system: influenza A/H3N2 NA D151A; settings: ref [4] of supplement (Sheu 2008); cited from earlier work
[12] = test system: influenza A/H3N2 NA D151E; settings: ref [3] of supplement (Nguyen 2012); cited from earlier work
[13] = test system: influenza A/H3N2 NA D151V; settings: ref [4] of supplement (Sheu 2008); cited from earlier work
[14] = test system: influenza A/H3N2 NA R224K; settings: ref [3] of supplement (Nguyen 2012); cited from earlier work
[15] = test system: influenza A/H3N2 NA Q226H; settings: ref [2] of supplement (Monto 2006); cited from earlier work
[16] = test system: influenza A/H3N2 NA E276D; settings: ref [3] of supplement (Nguyen 2012); cited from earlier work
[17] = test system: influenza A/H3N2 NA R371K; settings: ref [3] of supplement (Nguyen 2012); cited from earlier work
[18] = test system: influenza A/H3N2 NA E119V+I222L; settings: ref [3] of supplement (Nguyen 2012); cited from earlier work
[19] = test system: influenza A/H3N2 NA I222T; settings: cited from earlier work

Compound: CCC(CC)[C@H](NC(C)=O)[C@@H]1[C@H](O)[C@@H](C(=O)O)C[C@H]1N=C(N)N [Peramivir, peramivir]
- IC50 [1]: 0.2 ± 0.1 nM
- IC50 [2]: 0.2 ± 0.1 nM
- IC50 [3]: 0.4 nM
- Drug susceptibility by NA inhibition assays (WHO class) [4]: S (<10-fold increase as susceptible (“S”))
- IC50 fold-change compared to wildtype [4]: 2 fold
- Drug susceptibility by NA inhibition assays (WHO class) [5]: S (<10-fold increase as susceptible (“S”))
- IC50 fold-change compared to wildtype [5]: 3 fold
- Drug susceptibility by NA inhibition assays (WHO class) [6]: S (<10-fold increase as susceptible (“S”))
- IC50 fold-change compared to wildtype [6]: 1-3 fold
- Drug susceptibility by NA inhibition assays (WHO class) [7]: DS/R
- IC50 fold-change compared to wildtype [7]: 14-719 fold
- Drug susceptibility by NA inhibition assays (WHO class) [8]: S (<10-fold increase as susceptible (“S”))
- IC50 fold-change compared to wildtype [8]: 1 fold
- Drug susceptibility by NA inhibition assays (WHO class) [9]: S (<10-fold increase as susceptible (“S”))
- IC50 fold-change compared to wildtype [9]: 7 fold

Compound: CC(=O)N[C@H]1[C@H]([C@H](O)[C@H](O)CO)OC(C(=O)O)=C[C@@H]1N=C(N)N [Zanamivir, zanamivir]
- Drug susceptibility by NA inhibition assays (WHO class) (influenza A/H3N2 NA E41G): S (<10-fold increase as susceptible (“S”))
- Drug susceptibility by NA inhibition assays (WHO class) [4]: DS (10–100-fold increase as decreased susceptibility (“DS”))
- Drug susceptibility by NA inhibition assays (WHO class) [5]: DS (10–100-fold increase as decreased susceptibility (“DS”))
- Drug susceptibility by NA inhibition assays (WHO class) [6]: S (<10-fold increase as susceptible (“S”))
- Drug susceptibility by NA inhibition assays (WHO class) [10]: DS (10–100-fold increase as decreased susceptibility (“DS”))
- Drug susceptibility by NA inhibition assays (WHO class) [11]: DS (10–100-fold increase as decreased susceptibility (“DS”))
- Drug susceptibility by NA inhibition assays (WHO class) [12]: S (<10-fold increase as susceptible (“S”))
- Drug susceptibility by NA inhibition assays (WHO class) [13]: DS (10–100-fold increase as decreased susceptibility (“DS”))
- Drug susceptibility by NA inhibition assays (WHO class) [14]: DS (10–100-fold increase as decreased susceptibility (“DS”))
- Drug susceptibility by NA inhibition assays (WHO class) [15]: S (<10-fold increase as susceptible (“S”))
- Drug susceptibility by NA inhibition assays (WHO class) [16]: R (>100-fold increase as resistant (“R”))
- Drug susceptibility by NA inhibition assays (WHO class) [7]: S/DS/R
- Drug susceptibility by NA inhibition assays (WHO class) [8]: S (<10-fold increase as susceptible (“S”))
- Drug susceptibility by NA inhibition assays (WHO class) [17]: DS (10–100-fold increase as decreased susceptibility (“DS”))
- Drug susceptibility by NA inhibition assays (WHO class) [18]: S (<10-fold increase as susceptible (“S”))
- Drug susceptibility by NA inhibition assays (WHO class) [9]: S (<10-fold increase as susceptible (“S”))

Compound: CCOC(=O)C1=C[C@@H](OC(CC)CC)[C@H](NC(C)=O)[C@@H](N)C1 [Oseltamivir, oseltamivir]
- Drug susceptibility by NA inhibition assays (WHO class) (influenza A/H3N2 NA E41G): DS (10–100-fold increase as decreased susceptibility (“DS”))
- Drug susceptibility by NA inhibition assays (WHO class) [4]: S (<10-fold increase as susceptible (“S”))
- Drug susceptibility by NA inhibition assays (WHO class) [5]: R (>100-fold increase as resistant (“R”))
- Drug susceptibility by NA inhibition assays (WHO class) [6]: DS/R
- Drug susceptibility by NA inhibition assays (WHO class) [10]: S (<10-fold increase as susceptible (“S”))
- Drug susceptibility by NA inhibition assays (WHO class) [11]: S (<10-fold increase as susceptible (“S”))
- Drug susceptibility by NA inhibition assays (WHO class) [12]: DS (10–100-fold increase as decreased susceptibility (“DS”))
- Drug susceptibility by NA inhibition assays (WHO class) [13]: S (<10-fold increase as susceptible (“S”))
- increase in IC50 compared to that of the wild-type ([19]; I222T in influenza A/H3N2): 16 fold
- Drug susceptibility by NA inhibition assays (WHO class) ([19]; I222T, ref [5] of supplement (Pizzorno 2014)): DS (10–100-fold increase as decreased susceptibility (“DS”))
- Drug susceptibility by NA inhibition assays (WHO class) [14]: R (>100-fold increase as resistant (“R”))
- Drug susceptibility by NA inhibition assays (WHO class) [15]: DS (10–100-fold increase as decreased susceptibility (“DS”))
- Drug susceptibility by NA inhibition assays (WHO class) [16]: DS (10–100-fold increase as decreased susceptibility (“DS”))
- Drug susceptibility by NA inhibition assays (WHO class) [7]: R (>100-fold increase as resistant (“R”))
- Drug susceptibility by NA inhibition assays (WHO class) [8]: R (>100-fold increase as resistant (“R”))
- Drug susceptibility by NA inhibition assays (WHO class) [17]: DS (10–100-fold increase as decreased susceptibility (“DS”))
- Drug susceptibility by NA inhibition assays (WHO class) [18]: R (>100-fold increase as resistant (“R”))
- Drug susceptibility by NA inhibition assays (WHO class) [9]: R (>100-fold increase as resistant (“R”))
